Assay results from patent US5905073A, “Use of 2-hydroxy-5-phenylazobenzoic acid derivatives as colon cancer chemopreventative and chemotherapeutic agents” (priority 1996, dated 1999).
“Also recorded” adds a separate entry of the source. Where two headings read alike, the source gives them in different places.

Legend:
human colon cancer cells = assay: Colon cancer cell proliferation in vitro, comparative statements; assay type: cell-based
Experimental: (§1) Cells were grown in Dulbeccos Modified Eagle medium supplemented with 10% calf serum in an atmosphere of 5% CO2 at 37° C. For growth experiments, cells were seeded into 24-well tissue culture dishes (2 cm^2 /well) at a density of 20,000 cells/well and allowed to attach for 12 hours. The growth medium was then changed and replaced with fresh media containing the test drugs.
(§2) The test drugs were dissolved in tissue culture media at the desired concentration and added to individual wells. To determine the number of cells per well, media was removed and the cells washed with phosphate buffered saline solution. The cells were then incubated 15 minutes with trypsin-EDTA solution until detached. The detached cells were then removed from the wells and counted using a Coulter Counter (Model ZBI).
(§3) The cell numbers shown in Table I are the average of triplicate culture wells.
(§4) For dose response studies a sensitive dye binding assay was adapted which allows simultaneous assay of multiple agents and doses in 96-well plates. Cells were plated and allowed to adhere for 24 hours prior to addition of the study drug. Cell densities were then determined 4 days later by fixation of the wells and staining with Sulforhodamine B dye. Optical density of the stained cultures was then determined using a 96-well plate reader at 495 nm (Skehan et al. (1990) J. Natl. Cancer Inst. 82:1107-1112).
Two such oxidation products, gentisic acid (Dull et al. (1987) Biochem. Pharmacol. 36:2467-2472) and 5-nitro-salicylate (Laffafian et al. (1991) Biochem. Pharmacol. 42:1869-1874) have been elucidated.

LoVo cells = assay: Growth inhibition of LoVo colon cancer cells; assay type: cell-based; conditions: Homo sapiens, Table IV, read-out: IC50 for inhibition of human colon cancer cell proliferation
Experimental: as §4, with “dye.” for “dye. Optical density of the stained cultures was then determined using a 96-well plate reader at 495 nm (Skehan et al. (1990) J. Natl. Cancer Inst. 82:1107-1112).”

LS174T cells [1] = assay: Dose response growth inhibition of LS174T cells, Sulforhodamine B dye binding assay; assay type: cell-based, human; conditions: Homo sapiens
Experimental: as §4, with “dye.” for “dye. Optical density of the stained cultures was then determined using a 96-well plate reader at 495 nm (Skehan et al. (1990) J. Natl. Cancer Inst. 82:1107-1112).”

HT-29 cells = assay: Dose response growth inhibition of HT-29 cells, Sulforhodamine B dye binding assay; assay type: cell-based, human; conditions: Homo sapiens
Experimental: as §4, with “dye.” for “dye. Optical density of the stained cultures was then determined using a 96-well plate reader at 495 nm (Skehan et al. (1990) J. Natl. Cancer Inst. 82:1107-1112).”

[2] = cited from earlier work
colonic inflammation = conditions: several animal models of colonic inflammation; cited from earlier work
LS174T cells [3] = assay: Proliferation of LS174T colon cancer cells, Coulter Counter cell count; assay type: cell-based, human
Experimental: as §1, §2, §3

**Q.** Which “inhibition of colon cancer cell growth (in words)” value (human colon cancer cells) does the source give for O=C(O)CCNC(=O)c1ccc(/N=N/c2ccc(O)c(C(=O)O)c2)cc1 [Balsalazide] here?
**A.** Its value is “potently inhibitory; also recorded: greater inhibitory response at lower concentrations than did 5-ASA”.

**Q.** And the “relative sensitivity of LS174T and HT-29 cells” value (human colon cancer cells; LS174T vs HT-29)?
**A.** Its value is “identical between both cell types”.

**Q.** And the IC50 (LoVo cells)?
**A.** The IC50 was 5 mM.

**Q.** What about the IC50 (LS174T cells [1]; Table IV, read-out: IC50 for inhibition of human colon cancer cell proliferation) of the same molecule?
**A.** The IC50 was 5.29 mM.

**Q.** And the IC50 (LS174T cells [1]; text (FIG. 5), read-out: IC50)?
**A.** Its IC50 is 5.2 mM.

**Q.** What about the IC50 (HT-29 cells; HT-29, Table IV, read-out: IC50 for inhibition of human colon cancer cell proliferation) of the same molecule?
**A.** Its IC50 is 5.71 mM.

**Q.** And the IC50 (HT-29 cells; HT-29, text (FIG. 5), read-out: IC50)?
**A.** The IC50 was 5.7 mM.

**Q.** What about the absorption ([2]; oral balsalazide) of the same molecule?
**A.** The absorption was “virtually unabsorbed through the upper GI tract”.

**Q.** And the “drug reaching the colon intact” value ([2]; oral)?
**A.** Its value is 99%.

**Q.** What about the “anti-inflammatory activity in animal models” value (colonic inflammation) of the same molecule?
**A.** Its value is “possesses anti-inflammatory activity”.

**Q.** What about the “Cell No. on Day 10” value (LS174T cells [3]; 10 mM, average of triplicate wells) of the same molecule?
**A.** The value was 24925.

**Q.** What about the activity at 10000 µM (LS174T cells [3]; Homo sapiens, 240 h, read-out: % of Control Cells) of the same molecule?
**A.** The activity at 10000 µM was 3.51%.
